According to US11073509B2, “Assays and methods for determining the responsiveness of an individual subject to a therapeutic agent” (Celcuity Inc., priority 2013, dated 2021):
Where two headings read alike, the source gives them in different places.

Columns and labels:
[1] = system: Patient B2 breast cancer cells; test: CELx Anti-Proliferative test, impedance biosensor CReMS; format: cell-based, human
Method: (§1) The physiologic change of the B1 and B2 cells during the test was measured with an impedance biosensor CReMS and the output from the CReMS is recorded in FIGS. 2A and 2B. The comparison of the CELx test results and the third party clinical reference is recorded in FIG. 2C.
(§2) CReMS, microplate, reagents, and buffers: The CReMS, microplate, reagents, and buffers used in Example 1 are the same as those employed in Example 2, except for the therapeutic agent tested. […] Paclitaxel was purchased from Selleck Chemicals (TX, USA).
(§3) Cells: Breast Cancer cells from Patients B1 and B2 were utilized and handled in the same manner as described in Example 1.
(§4) Procedure: Between 6,000-12,000 cells in each well were seeded onto the impedance microplate containing 120 uL settling media with serum. […] The CReMS recording of physiologic change was maintained continuously from when the cells were first seeded on the microplate through complete cellular response, which was between 48-72 hours. The test was performed at 37° C., 5% CO2 and at 75% relative humidity.

[2] = system: Patient B1 breast cancer cells; test: as above; format: cell-based, human
Method: as §1, §2, §3, §4

[3] = system: patient breast cancer cell sample; test: CELx Pathway Shutdown single drug test (Example 4), impedance biosensor CReMS; format: cell-based, human; settings: one patient breast cancer cell sample expected to be a responder
Method: The physiologic change of the cells and drugs tested was measured with an impedance biosensor CReMS and the summary output from the CReMS is recorded in FIG. 4.
Cells: Cells from Patients B1, B2, B3, B4, B5, B6, B7, C1, C2, L1, and L2 were utilized and handled in the same manner as described in Example 1.
In those experiments involving a combination of drugs, the procedures described in Example 3 were utilized. The list of patient cells and the drug tested with the cells is characterized in FIG. 4.

[4] = system: Patient C2 colon cancer cells; test: CELx Combination test, impedance biosensor CReMS; format: cell-based, human; settings: Patient C2 cells (printed Patient 2), single drug
Method: Cells: Colon cancer cells from Patients C1 and C2 were utilized and handled in the same manner as described in Example 1.
Procedure: Between 6,000-12,000 cells in each well were seeded into the impedance microplate containing 120 uL settling media with serum. The solution was replaced with media containing no serum to synchronize the cells with respect to physiologic state. […] The CReMS recording of physiologic change was maintained continuously from when the cells were first seeded on the microplate through complete cellular response, which was between 48-72 hours. The test was performed at 37° C., 5% CO2 and at 75% relative humidity.

[5] = cited from earlier work
[6] = system: Patient B4 cells (HER2 overexpressing breast cancer); test: CELx Pathway Shutdown test, impedance biosensor CReMS, EGF stimulation; format: cell-based, human
Text: (§5) CReM and microplate: A 4″×6″, 96-well impedance microplate was placed into a Roche Applied Science (Indianapolis, Ind.) xCELLigence SP impedance biosensor designed to maintain constant voltage while measuring simultaneously the impedance of every well. The change in impedance for a particular well is proportional to the number of cells and type of attachment the cells have with the impedance microplate. Changes in impedance indicate a response to perturbation of these small cell populations.
(§6) Cells: Cells from Patient B1 and B4 were utilized. […] Prior to addition to the impedance microplate, the cells were removed from their growth container with versene, counted, and re-suspended in media without serum or other growth factors.
(§7) Buffers and reagents: Standard media, serum, antibiotics (e.g. penicillin, streptomycin), and other buffers were purchased and used as delivered from ATCC (Manassas, Va., USA) or Life Technologies (Grand Island, N.Y.). Additional growth factor (mature human EGF ca6KDa) was purchased from R&D Systems (Minneapolis, Minn.) and prepared in buffered cell media without growth factors or serum.
(§8) Procedure: Between 6,000-12,000 cells in each well were seeded onto the impedance microplate containing 120 uL standard media with serum. The solution was replaced with media containing no serum to synchronize the cells with respect to physiologic state and pathway stimulation. Twenty microliters of drugs were added to the no-serum media two hours in advance of pathway stimulation.

[7] = system: Patient B1 cells (HER2 overexpressing breast cancer); test: as above; format: cell-based, human
Text: as §5, §6, §7, §8

CC(=O)O[C@H]1C(=O)[C@@]2(C)[C@H]([C@H](OC(=O)c3ccccc3)[C@]3(O)C[C@H](OC(=O)[C@H](O)[C@@H](NC(=O)c4ccccc4)c4ccccc4)C(C)=C1C3(C)C)[C@]1(OC(C)=O)CO[C@@H]1C[C@@H]2O [paclitaxel, Paclitaxel]
CELx test prediction of patient response ([1]; Patient B2): will respond
time after which the CReM output reverses (test cells begin proliferating, no longer responsive) ([1]; Patient B2 cells): roughly 24 hours
responsiveness of test cells (decrease in CReM output compared to control cells) ([1]; Patient B2 cells, continuous recording 48-72 hours): initial responsiveness
CELx test prediction of patient response ([2]; Patient B1): will respond
responsiveness of test cells (decrease in CReM output compared to control cells) ([2]; Patient B1 cells, continuous recording 48-72 hours): immediate and continuous responsiveness

COc1cc2ncnc(Nc3ccc(F)c(Cl)c3)c2cc1OCCCN1CCOCC1 [gefitinib]
response in the CReMS testing [3]: did not show a response

CCc1c2c(nc3ccc(OC(=O)N4CCC(N5CCCCC5)CC4)cc13)-c1cc3c(c(=O)n1C2)COC(=O)[C@]3(O)CC [irinotecan, Irinotecan]
responsiveness to the individual drug [4]: responsive

CS(=O)(=O)CCNCc1ccc(-c2ccc3ncnc(Nc4ccc(OCc5cccc(F)c5)c(Cl)c4)c3c2)o1 [lapatinib, Lapatinib]
patient responsiveness recorded by clinical reference standard ([5]; Patient B1): responsive
patient responsiveness recorded by clinical reference standard ([5]; Patient B4): responsive
CELx test prediction of patient response [6]: would respond
CELx test prediction of patient response ([7]; Patient B1): will respond
change (decrease) of cell index of test cells after drug ([7]; Patient B1 cells, pathway stimulated with receptor ligand (EGF), vs stimulated cells without drug): over 50%
